Results on 37 molecules are retold here after patent publication US9944603B2, “Compounds and methods for the treatment of cystic fibrosis” (Flatley Discovery Lab, LLC, priority 2013, dated 2018).

This test has as its target T1, human F508del CFTR (Homo sapiens, UniProt P13569, DEL508-508).
T1 construct: expressed in transfected cells
The experiment in a line: CFTR-YFP Assay, CFTR Corrector Protocol (YFP flux assay). The test is classed as cell-based. The note with it: for Emax: normalized to the positive control, read-out: EMAX (% Efficacy, EMAX normalized to the positive control).

T1 sequence (P13569 with tags, fused parts or gaps DEL508-508): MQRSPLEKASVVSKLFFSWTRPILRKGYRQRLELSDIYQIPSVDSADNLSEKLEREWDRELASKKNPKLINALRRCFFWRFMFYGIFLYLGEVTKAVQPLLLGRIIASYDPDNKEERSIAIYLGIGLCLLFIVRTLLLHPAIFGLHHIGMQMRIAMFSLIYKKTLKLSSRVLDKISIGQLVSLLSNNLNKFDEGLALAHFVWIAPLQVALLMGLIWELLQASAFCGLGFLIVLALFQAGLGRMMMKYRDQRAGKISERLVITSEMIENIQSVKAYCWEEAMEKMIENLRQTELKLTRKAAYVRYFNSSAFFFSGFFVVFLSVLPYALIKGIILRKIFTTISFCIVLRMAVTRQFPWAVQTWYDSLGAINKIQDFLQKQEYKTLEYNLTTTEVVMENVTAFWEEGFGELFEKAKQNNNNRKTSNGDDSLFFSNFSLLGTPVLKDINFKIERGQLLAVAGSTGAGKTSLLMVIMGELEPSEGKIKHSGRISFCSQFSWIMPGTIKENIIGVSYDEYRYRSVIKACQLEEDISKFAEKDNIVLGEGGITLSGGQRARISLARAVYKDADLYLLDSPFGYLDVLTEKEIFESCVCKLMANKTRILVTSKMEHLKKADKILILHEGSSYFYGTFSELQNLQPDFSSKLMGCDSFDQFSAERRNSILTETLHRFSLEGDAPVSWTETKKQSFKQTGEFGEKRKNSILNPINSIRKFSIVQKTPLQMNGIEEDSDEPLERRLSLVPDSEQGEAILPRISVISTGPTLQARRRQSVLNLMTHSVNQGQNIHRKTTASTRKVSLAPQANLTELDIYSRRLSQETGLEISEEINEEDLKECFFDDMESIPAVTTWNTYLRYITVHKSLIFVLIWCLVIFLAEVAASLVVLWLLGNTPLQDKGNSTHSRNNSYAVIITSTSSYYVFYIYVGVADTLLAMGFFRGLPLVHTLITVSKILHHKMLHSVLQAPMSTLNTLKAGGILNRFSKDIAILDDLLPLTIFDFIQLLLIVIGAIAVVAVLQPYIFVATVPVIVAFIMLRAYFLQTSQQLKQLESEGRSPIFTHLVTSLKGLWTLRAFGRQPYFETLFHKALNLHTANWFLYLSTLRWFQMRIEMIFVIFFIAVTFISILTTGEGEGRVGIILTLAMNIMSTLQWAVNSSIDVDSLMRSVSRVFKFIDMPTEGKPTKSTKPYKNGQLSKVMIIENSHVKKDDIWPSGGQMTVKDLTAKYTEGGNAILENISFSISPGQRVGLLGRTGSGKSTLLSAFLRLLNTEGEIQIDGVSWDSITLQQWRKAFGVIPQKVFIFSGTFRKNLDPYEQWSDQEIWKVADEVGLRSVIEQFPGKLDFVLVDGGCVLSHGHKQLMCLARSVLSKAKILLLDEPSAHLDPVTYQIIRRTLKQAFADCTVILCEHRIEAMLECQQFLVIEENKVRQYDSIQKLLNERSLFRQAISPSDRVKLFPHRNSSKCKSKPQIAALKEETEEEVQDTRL

For orientation: EC50 means the concentration giving half of the maximal effect. The low end stands for greater potency, the high end for weaker potency. The term Emax denotes the size of the effect at its maximum, as opposed to the concentration needed. In the case of `CCc1ccc(S(=O)(=O)N2CCC(n3c(-c4ccc(F)nc4F)nc4cccnc43)CC2)cc1` [Example 111], the half-maximal effective concentration (EC50) was less than 10 µM and the maximal response (Emax) lay in the range of 30 to 80%.
Taken in the same sequence, the figures for `COc1ccc(S(=O)(=O)N2CCC(n3c(-c4ccccc4)cc4cccnc43)CC2)cc1Cl` [Example 98] were less than 10 µM and 10 to 30%.
The corresponding values for `COc1ccc(S(=O)(=O)N2CCC(n3c(-c4ccccc4)nc4ccc(C)nc43)CC2)cc1F` [Example 64] are less than 10 µM and 30 to 80%.
For `CCc1ccc(S(=O)(=O)N2CCC(n3c(-c4cccnc4F)nc4cccnc43)CC2)cc1` [Example 120], the EC50 was less than 10 µM and the Emax is greater than 80%.
The corresponding values for `CCc1ccc(S(=O)(=O)N2CCC(N(c3ccccn3)S(=O)(=O)c3ccc(Cl)cc3)CC2)cc1` [Example 235] are less than 10 µM and 30 to 80%.
`COc1ccc2nc(-c3ccncc3Cl)n(C3CCN(S(=O)(=O)c4ccc(OC)c(Cl)c4)CC3)c2n1` [Example 58]: the EC50 was less than 10 µM and the Emax is 10 to 30%.
Taken in the same sequence, the figures for `Cc1ccc2nc(-c3ccc4c(c3)OC(F)(F)O4)n(C3CCN(S(=O)(=O)c4ccc5c(c4)OC(F)(F)O5)CC3)c2n1` [Example 87] were greater than 20 µM and 10 to 30%.
Taken in the same sequence, the figures for `O=S(=O)(c1ccc2c(c1)OC(F)(F)O2)N1CCC(n2c(-c3ccccc3)cc3cccnc32)CC1` [Example 99] were less than 10 µM and 30 to 80%.
Taken in the same sequence, the figures for `O=S(=O)(c1ccc2snc(Cl)c2c1)N1CCC(n2c(-c3ccncc3Cl)nc3cccnc32)CC1` [Example 157] were less than 10 µM and 10 to 30%.
Regarding `Cc1cc2cc(S(=O)(=O)N3CCC(n4c(-c5ccc(F)cc5F)nc5cccnc54)CC3)ccc2[nH]1` [Example 143], the EC50 was less than 10 µM and the Emax was 10 to 30%.
Consider `COc1ccc(S(=O)(=O)N2CCC(n3c(-c4ccccc4)nc4ccccc43)CC2)cc1Cl` [Example 81], for which the EC50 is less than 10 µM and the Emax lay within 30 to 80%.
Taken in the same sequence, the figures for `COc1ccc(S(=O)(=O)N2CCC(n3c(-c4ncc[nH]4)nc4cccnc43)CC2)cc1Cl` [Example 75] were 10 to 20 µM and 30 to 80%.
Turning to `CCc1ccc(S(=O)(=O)N2CCC(N(C(=S)c3ccccc3Cl)c3ccc4c(c3)OC(F)(F)O4)CC2)cc1` [Example 212], the EC50 lay within 10 to 20 µM and the Emax lay within 30 to 80%.
Taken in the same sequence, the figures for `CCc1ccc(S(=O)(=O)N2CCC(n3c(-c4ccc(F)cc4F)nc4cccnc43)CC2)cc1` [Example 47] were less than 10 µM and 30 to 80%.
Take `Cc1ccc(S(=O)(=O)N2CCC(n3c(-c4ccccc4Cl)nc4cccnc43)CC2)cc1C#N` [Example 96]: the EC50 was less than 10 µM and the Emax fell in the range of 30 to 80%.
Consider `CCc1ccc(S(=O)(=O)N2CCC(N(c3ccncn3)S(=O)(=O)c3ccccc3Cl)CC2)cc1` [Example 249], for which the EC50 is less than 10 µM and the Emax was 30 to 80%.
Taken in the same sequence, the figures for `CCc1ccc(S(=O)(=O)N2CCC(N(c3cccc(OC)n3)S(=O)(=O)c3ccccc3Cl)CC2)cc1` [Example 222, 2-Chloro-N-(1-((4-ethylphenyl)sulfonyl)piperidin-4-yl)-N-(6-methoxypyridin-2-yl)benzenesulfonamide] were less than 10 µM and 10 to 30%.
The corresponding values for `COc1ccc(S(=O)(=O)N2CCC(N(C(=O)c3ccccc3)c3cccc(C)n3)CC2)cc1Cl` [Example 174] are greater than 20 µM and 10 to 30%.
Taken in the same sequence, the figures for `COc1ccc(S(=O)(=O)N2CCC(n3c(-c4ccccc4Cl)nc4ccc(C)nc43)CC2)cc1OC` [Example 85] were greater than 20 µM and 10 to 30%.
Consider `Cc1nc2ccc(S(=O)(=O)N3CCC(n4c(-c5ccncc5F)nc5cccnc54)CC3)cc2s1` [Example 132], for which the half-maximal effective concentration (EC50) is less than 10 µM and the Emax lay in the range of 30 to 80%.
Taken in the same sequence, the figures for `O=S(=O)(c1ccc2c(c1)OC(F)(F)O2)N1CCC(n2c(-c3ccncc3F)nc3ncccc32)CC1` [Example 116] were less than 10 µM and greater than 80%.
The corresponding values for `O=S(=O)(c1ccc(OC(F)F)cc1)N1CCC(n2c(-c3ccncc3Cl)nc3cccnc32)CC1` [Example 56] are less than 10 µM and 30 to 80%.
Taken in the same sequence, the figures for `Cc1ccc2nc(-c3ccc(F)cc3)n(C3CCN(S(=O)(=O)c4ccc5c(c4)OC(F)(F)O5)CC3)c2n1` [Example 84] were less than 10 µM and 30 to 80%.
For `[2H]C1([2H])Oc2ccc(S(=O)(=O)N3CCC(n4c(-c5ccncc5F)nc5cccnc54)CC3)cc2O1` [Example 136], the EC50 is less than 10 µM and the Emax was in the range of 10 to 30%.
Taken in the same sequence, the figures for `COc1ccc(S(=O)(=O)N2CCC(N(C(=O)Nc3ccccc3Cl)c3cccc(C)n3)CC2)cc1Cl` [Example 176] were less than 10 µM and 10 to 30%.
Taken in the same sequence, the figures for `COc1ccc(S(=O)(=O)N2CCC(N(C(=O)c3ccccc3Cl)c3cccc(C)n3)CC2)cc1Cl` [Example 206] were 10 to 20 µM and 10 to 30%.
Taken in the same sequence, the figures for `Cc1ccc2nc(-c3ccncn3)n(C3CCN(S(=O)(=O)c4ccc5c(c4)OC(F)(F)O5)CC3)c2n1` [Example 114] were less than 10 µM and 30 to 80%.
As to `CCc1ccc(S(=O)(=O)N2CCC(N(c3ncccc3OC)S(=O)(=O)c3ccccc3Cl)CC2)cc1` [Example 247], the EC50 is less than 10 µM and the Emax was in the range of 30 to 80%.
The corresponding values for `[2H]C1([2H])Oc2ccc(S(=O)(=O)N3CCC(n4c(-c5ccncc5Cl)nc5cccnc54)CC3)cc2O1` [Example 44] are less than 10 µM and 30 to 80%.
Taken in the same sequence, the figures for `COc1ccc(S(=O)(=O)N2CCC(N(c3cccc(C)n3)S(=O)(=O)c3c(C)cc(C)cc3C)CC2)cc1Cl` [Example 193] were less than 10 µM and 30 to 80%.
On to `O=S(=O)(c1ccc2c(c1)OC(F)(F)O2)N1CCC(n2c(-c3cccnc3Cl)nc3cccnc32)CC1` [Example 102], for which the EC50 is less than 10 µM and the Emax fell in the range of 30 to 80%.
Taken in the same sequence, the figures for `N#Cc1ccc(S(=O)(=O)N2CCC(n3c(-c4ccccc4)nc4cccnc43)CC2)cc1Cl` [Example 71] were less than 10 µM and 10 to 30%.
The corresponding values for `CCc1ccc(S(=O)(=O)N2CCC(N(C(=S)c3ccccc3Cl)c3ccc(OC)cc3)CC2)cc1` [Example 211] are 10 to 20 µM and 30 to 80%.
The corresponding values for `O=S(=O)(c1ccc2c(c1)CCO2)N1CCC(n2c(-c3ccncc3F)nc3cccnc32)CC1` [Example 117] are less than 10 µM and 30 to 80%.
Consider `O=S(=O)(c1ccc2snc(Cl)c2c1)N1CCC(n2c(-c3ccc(F)cc3F)nc3cccnc32)CC1` [Example 159], for which the EC50 was less than 10 µM and the Emax lay within 10 to 30%.
Regarding `O=S(=O)(c1ccc(OC(F)F)cc1)N1CCC(n2c(-c3ccncc3F)nc3nccnc32)CC1` [Example 129], the EC50 was less than 10 µM and the Emax is 10 to 30%.
The corresponding values for `COC(=O)c1ccccc1-c1nc2cccnc2n1C1CCN(S(=O)(=O)c2ccc(OC)c(Cl)c2)CC1` [Example 79] are less than 10 µM and 30 to 80%.
